According to ChEMBL document CHEMBL6071129, “Strategies that regulate Hippo signaling pathway for novel anticancer therapeutics” (Eur J Med Chem, 2024):

Assays:
PC-9 = test: Antiproliferative activity against human PC-9 cells incubated for 72 hrs by Incucyte FLR live cell analysis; format: functional, cell-based; details: PC-9, 72 h
HCC4006 = test: Antiproliferative activity against human HCC4006 cells incubated for 72 hrs by Incucyte FLR live cell analysis; format: functional, cell-based; details: HCC4006, 72 h
[1] = Inhibition of YAP/TEAD (unknown origin) activity; parameters: species or system Homo sapiens
HCT-116 = test: Antiproliferative activity against human HCT-116 cells incubated for 72 hrs; format: functional, cell-based; details: HCT-116, 72 h
[2] = biological target: Transcriptional enhancer factor TEF-3 (Homo sapiens, UniProt Q15561); test: Inhibition of TEAD4 (unknown origin) autopalmitoylation
[3] = Inhibition of YAP (unknown origin) to TEAD4 (unknown origin) protein protein interaction; parameters: species or system Homo sapiens
[4] = Inhibition of TEAD in HEK293 cells expressing YAP; format: cell-based, Homo sapiens
[5] = Antitumor activity against human MIA PaCa2 cells xenografted in BALB/c mouse assessed as tumor growth inhibition at 5 mg/kg, ip administered for every 2 days; format: functional; details: 48 h, time 2 day, read-out: TGI
SW1990 = test: Antiproliferative activity against human SW1990 cells incubated for 48 hrs by MTT assay; format: functional, cell-based; details: SW1990, 48 h
MIA PaCa-2 = test: Antiproliferative activity against human MIA PaCa-2 cells incubated for 48 hrs by MTT assay; format: functional, cell-based; details: MIA PaCa-2, 48 h
SU.86.86 = test: Antiproliferative activity against human SU-86-86 cells incubated for 48 hrs by MTT assay; format: functional, cell-based; details: SU.86.86, 48 h
PANC-1 = test: Antiproliferative activity against human PANC-1 cells incubated for 48 hrs by MTT assay; format: functional, cell-based; details: PANC-1, 48 h
BXPC-3 = test: Antiproliferative activity against human BXPC-3 cells incubated for 48 hrs by MTT assay; format: functional, cell-based; details: BXPC-3, 48 h
ASPC1 = test: Antiproliferative activity against human ASPC1 cells incubated for 48 hrs by MTT assay; format: functional, cell-based; details: ASPC1, 48 h
[6] = tested on: Transcriptional enhancer factor TEF-1-Lipid; test: Inhibition of His-tagged TEAD1 (unknown origin) to lipid (unknown origin) interaction preincubated for 30 mins followed by biotinylated lipid addition and measured after 60 mins by TR-FRET assay; parameters: species or system Homo sapiens
[7] = tested on: Transcriptional enhancer factor TEF-3-Lipid; test: Inhibition of His-tagged TEAD4 (unknown origin) to lipid (unknown origin) interaction preincubated for 30 mins followed by biotinylated lipid addition and measured after 60 mins by TR-FRET assay; parameters: species or system Homo sapiens
[8] = tested on: Transcriptional enhancer factor TEF-4-Lipid; test: Inhibition of His-tagged TEAD2 (unknown origin) to lipid (unknown origin) interaction preincubated for 30 mins followed by biotinylated lipid addition and measured after 60 mins by TR-FRET assay; parameters: species or system Homo sapiens
[9] = Inhibition of His-tagged TEAD1 (unknown origin) to YAP (unknown origin) protein-protein interaction preincubated for 30 mins followed by biotinylated YAP addition and measured after 60 mins by TR-FRET assay; parameters: species or system Homo sapiens
[10] = Inhibition of His-tagged TEAD4 (unknown origin) to TAZ (unknown origin) protein-protein interaction preincubated for 30 mins followed by biotinylated YAP addition and measured after 60 mins by TR-FRET assay; parameters: species or system Homo sapiens
[11] = Antiproliferative activity against human VMRC-LCD cells assessed as minimum efficacy by CellTiter-Glo luminescent cell viability assay; format: functional
[12] = Inhibition of His-tagged TEAD2 (unknown origin) to TAZ (unknown origin) protein-protein interaction preincubated for 30 mins followed by biotinylated YAP addition and measured after 60 mins by TR-FRET assay; parameters: species or system Homo sapiens
OVCAR-8 [13] = test: Antiproliferative activity against human OVCAR-8 cells assessed as minimum efficacy by CellTiter-Glo luminescent cell viability assay; format: functional
[14] = tested on: Transcriptional enhancer factor TEF-5-Lipid; test: Inhibition of His-tagged TEAD3 (unknown origin) to lipid (unknown origin) interaction preincubated for 30 mins followed by biotinylated lipid addition and measured after 60 mins by TR-FRET assay; parameters: species or system Homo sapiens
[15] = Antiproliferative activity against human HCC1576 cells by CellTiter-Glo luminescent cell viability assay; format: functional, cell-based
[16] = Inhibition of His-tagged TEAD2 (unknown origin) to YAP (unknown origin) protein-protein interaction preincubated for 30 mins followed by biotinylated YAP addition and measured after 60 mins by TR-FRET assay; parameters: species or system Homo sapiens
[17] = Antiproliferative activity against human HCC1576 cells assessed as minimum efficacy by CellTiter-Glo luminescent cell viability assay; format: functional
[18] = Inhibition of His-tagged TEAD4 (unknown origin) to YAP (unknown origin) protein-protein interaction preincubated for 30 mins followed by biotinylated YAP addition and measured after 60 mins by TR-FRET assay; parameters: species or system Homo sapiens
[19] = Inhibition of His-tagged TEAD3 (unknown origin) to TAZ (unknown origin) protein-protein interaction preincubated for 30 mins followed by biotinylated YAP addition and measured after 60 mins by TR-FRET assay; parameters: species or system Homo sapiens
OVCAR-8 [20] = test: Antiproliferative activity against human OVCAR-8 cells by CellTiter-Glo luminescent cell viability assay; format: functional, cell-based
[21] = Antiproliferative activity against human VMRC-LCD cells by CellTiter-Glo luminescent cell viability assay; format: functional, cell-based
[22] = Inhibition of His-tagged TEAD3 (unknown origin) to YAP (unknown origin) protein-protein interaction preincubated for 30 mins followed by biotinylated YAP addition and measured after 60 mins by TR-FRET assay; parameters: species or system Homo sapiens
[23] = Inhibition of His-tagged TEAD1 (unknown origin) to TAZ (unknown origin) protein-protein interaction preincubated for 30 mins followed by biotinylated YAP addition and measured after 60 mins by TR-FRET assay; parameters: species or system Homo sapiens
NCI-H226 [24] = test: Antitumor activity against human NCI-H226 cells xenografted in BALB/c mouse assessed as tumor growth inhibition at 3 mg/kg/day; format: functional; details: read-out: TGI
[25] = Half-life in mouse; format: ADME, organism-based; details: in vivo
NCI-H28 = test: Antiproliferative activity against human NCI-H28 cells; format: functional, cell-based
[26] = Inhibition of TEAD (unknown origin) by YAP reporter assay; parameters: species or system Homo sapiens
[27] = Antitumor activity against human NCI-H2373-Tu-P2 cells xenografted in BALB/c mouse assessed as tumor growth inhibition at 3 mg/kg/day; format: functional; details: read-out: TGI
[28] = Antiproliferative activity against human NCI-H2373 cells; format: functional, cell-based
[29] = Oral bioavailability in mouse; format: ADME, organism-based; details: in vivo
NCI-H226 [30] = test: Antiproliferative activity against human NCI-H226 cells; format: functional, cell-based
Detroit 562 = test: Antitumor activity against human Detroit 562 cells xenografted in SCID.Bg mouse assessed as tumor growth inhibition at 200 mg/kg, po administered twice daily; format: functional; details: read-out: TGI
NCI-H226 [31] = test: Antitumor activity against human NCI-H226 cells xenografted in BALB/c mouse assessed as tumor growth inhibition at 10 mg/kg/day; format: functional; details: read-out: TGI
NCI-H2052 = test: Antiproliferative activity against human NCI-H2052 cells; format: functional, cell-based

Chain of Transcriptional enhancer factor TEF-3 (Q15561 whole entry): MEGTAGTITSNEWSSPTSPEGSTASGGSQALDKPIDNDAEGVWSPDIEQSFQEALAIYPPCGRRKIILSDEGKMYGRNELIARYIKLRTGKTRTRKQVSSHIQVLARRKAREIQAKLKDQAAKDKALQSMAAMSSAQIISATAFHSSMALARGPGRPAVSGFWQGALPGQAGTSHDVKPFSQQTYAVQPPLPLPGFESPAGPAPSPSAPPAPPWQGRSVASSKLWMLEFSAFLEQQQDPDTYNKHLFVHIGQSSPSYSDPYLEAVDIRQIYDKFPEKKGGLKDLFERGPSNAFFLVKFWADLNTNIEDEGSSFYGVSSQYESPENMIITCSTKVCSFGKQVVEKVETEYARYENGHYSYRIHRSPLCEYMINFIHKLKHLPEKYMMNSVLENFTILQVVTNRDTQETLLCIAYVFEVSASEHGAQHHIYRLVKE

SMILES: C=CC(=O)N1CCC(C)(Nc2cccc(C(F)(F)F)c2)C1 (centres undefined)
- IC50 (PC-9): < 10000 nM
- IC50 (HCC4006): < 10000 nM
- IC50 [1]: 800 nM

SMILES: CCOc1ccc(CN2CCCC(C(=O)c3cccc(C(F)(F)F)c3)C2)cc1CO (centres undefined)
- IC50 (HCT-116): 27900 nM
- IC50 [2]: 1300 nM
- IC50 [3]: 21400 nM
- IC50 [4]: 2100 nM

SMILES: COc1ccc(C(=O)O[C@H]2C=COC=C3[C@@H](O)[C@]45S[C@@H](C(=O)N4[C@@H]32)N(C)C5=O)cc1Oc1cc(C=O)ccc1O
- inhibition in vivo at 5 mg/kg [5]: 71%
- IC50 (SW1990): < 4000 nM
- IC50 (MIA PaCa-2): < 2000 nM
- IC50 (SU.86.86): < 4000 nM
- IC50 (PANC-1): < 2000 nM
- IC50 (BXPC-3): < 2000 nM
- IC50 (ASPC1): < 2000 nM

SMILES: Cc1nccnc1-c1nn2c(=O)cc(-c3ccc(C4CCCCC4)cc3)[nH]c2c1C(=O)N1CC(CF)C1
- IC50 [6]: 20 nM
- IC50 [7]: 10 nM
- IC50 [8]: 10 nM
- IC50 [9]: 40 nM
- IC50 [10]: 30 nM
- Emin [11]: 27%
- IC50 [12]: 10 nM
- Emin (OVCAR-8 [13]): 92%
- IC50 [14]: 50 nM
- EC50 [15]: 290 nM
- IC50 [16]: 10 nM
- Emin [17]: 81%
- IC50 [18]: 30 nM
- IC50 [19]: 100 nM
- EC50 (OVCAR-8 [20]): 170 nM
- EC50 [21]: 22000 nM
- IC50 [22]: 90 nM
- IC50 [23]: 50 nM

SMILES: CNS(=O)(=O)c1ccc(Nc2ccc(C(F)(F)F)cc2)c(-c2cn(C)cn2)c1
- inhibition in vivo at 3 mg/kg/day (NCI-H226 [24]): 106%
- half-life [25]: > 12 h
- IC50 (NCI-H28): > 3000 nM
- IC50 [26]: 1.02 nM
- inhibition in vivo at 3 mg/kg/day [27]: 118%
- IC50 [28]: 15.2 nM
- bioavailability [29]: ≥ 75%
- IC50 (NCI-H226 [30]): 3.8 nM

SMILES: COc1ncc(NS(C)(=O)=O)cc1/C=C/C1CCC(F)(F)CC1
- inhibition in vivo at 200 mg/kg (Detroit 562): 78%

SMILES: C[C@H](NC(=O)c1ccc2c(-c3ccc(C(F)(F)F)cc3)cccc2c1)c1ccccn1
- half-life [25]: > 12 h
- IC50 (NCI-H28): > 3000 nM
- inhibition in vivo at 10 mg/kg/day (NCI-H226 [31]): 104%
- IC50 [26]: 10.4 nM
- IC50 (NCI-H2052): 31.6 nM
- IC50 [28]: 25.6 nM
- bioavailability [29]: ≥ 75%
- IC50 (NCI-H226 [30]): 16.1 nM
